Results on eleven compounds are retold here after patent US11673910B2, “Macrolides with modified desosamine sugars and uses thereof” (Zikani Therapeutics, Inc., priority 2017, dated 2023).

By MIC is commonly meant the least concentration at which growth counts as inhibited. Low values mean a more susceptible organism, high ones a less susceptible organism.

Common to all, as to format: cell-based
One assay relates to S. aureus strain MP-12. The assay can be described thus: Broth dilution MIC determination (CLSI) against S. aureus strain MP-12. Conditions: Staphylococcus aureus, MP12, strain MP-12. The method in brief:
(§1)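 Reported scores reflect MIC ranges, with +++ at or below 4 mg/L, ++ from 8 up to under 32 mg/L, and + at 32 mg/L or higher. The macrolides were tested following CLSI broth dilution procedures.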

In another assay the test system is E. coli strain MP-4. The assay can be described thus: Broth dilution MIC determination (CLSI) against E. coli strain MP-4. The conditions noted are these: Escherichia coli, MP4. The method in brief: as §1
Assay [1] relates to K. pneumoniae strain MP-548. The assay can be described thus: Broth dilution MIC determination (CLSI) against K. pneumoniae strain MP-548. The conditions noted are these: Klebsiella pneumoniae, MP548. The method, boiled down: as §1
For orientation: In broth dilution the organism is exposed to a series of concentrations in liquid medium.

For assay [2], the system named is A. baumannii strain MP-15. The assay can be described thus: Broth dilution MIC determination (CLSI) against A. baumannii strain MP-15. The conditions noted are these: Acinetobacter baumannii, MP15. The method in brief: as §1
The test system of assay [3] is P. aeruginosa strain MP-3. The assay can be described thus: Broth dilution MIC determination (CLSI) against P. aeruginosa strain MP-3. Conditions: Pseudomonas aeruginosa, MP3. The method, boiled down: as §1

Converted amounts (≈) assume the structure as drawn.

Consider `CC[C@H]1OC(=O)[C@@]2(C)CCOC(C)(C[C@@H](C)CN[C@H](C)[C@H]3NC(=O)O[C@@]31C)[C@H](O[C@@H]1OC(CNC(C)C)CC(N(C)C)C1O)[C@@H](C)C2=O` (stereo partly shown) [Compound 213], for which the MIC was ≤ 4 µg/mL in the assay with S. aureus strain MP-12; ≤ 4 µg/mL against E. coli strain MP-4; ≤ 4 µg/mL in assay [1]; ≥ 32 µg/mL in assay [2]; ≥ 32 µg/mL in assay [3].

As to `CC[C@H]1OC(=O)[C@@]2(C)CCOC(C)(C[C@@H](C)CN(C)[C@H](C)[C@H]3NC(=O)O[C@@]31C)[C@H](O[C@@H]1OC(CNC(C)C)CC(N(C)C)C1O)[C@@H](C)C2=O` (stereo partly shown) [Compound 214], the MIC against S. aureus strain MP-12 is ≤ 4 µg/mL; against E. coli strain MP-4 it was ≤ 4 µg/mL; in assay [1], ≤ 4 µg/mL; in assay [2], ≥ 32 µg/mL; in assay [3] it was ≥ 32 µg/mL.

As for `CC[C@H]1OC(=O)[C@@]2(C)CCOC(C)(C[C@@H](C)CN(C)[C@H](C)[C@H]3NC(=O)O[C@@]31C)[C@H](O[C@@H]1OC(CN)CC(N(C)C)C1O)[C@@H](C)C2=O` (stereo partly shown) [Compound 218], the MIC in the assay on S. aureus strain MP-12 was 8 to 32 µg/mL (≈ 12.2 to 48.9 µM); against E. coli strain MP-4, 8 to 32 µg/mL (≈ 12.2 to 48.9 µM); in assay [1], ≥ 32 µg/mL; in assay [2] it was ≥ 32 µg/mL; in assay [3] it was ≥ 32 µg/mL.

`CC[C@H]1OC(=O)[C@@]2(C)CCOC(C)(C[C@@H](C)CN[C@H](C)[C@H]3NC(=O)O[C@@]31C)[C@H](O[C@@H]1OC(C)CC(N(C)C)C1O)[C@@H](C)C2=O` (stereo partly shown) [Compound 219]: the MIC was ≤ 4 µg/mL against S. aureus strain MP-12; ≤ 4 µg/mL against E. coli strain MP-4; ≤ 4 µg/mL in assay [1]; 8 to 32 µg/mL (≈ 12.8 to 51.1 µM) in assay [2]; ≥ 32 µg/mL in assay [3].

Consider `CC[C@H]1OC(=O)[C@@]2(C)CCOC(C)(C[C@@H](C)CN(C(=O)C(F)(F)F)[C@H](C)[C@H]3NC(=O)O[C@@]31C)[C@H](O[C@@H]1OC(C)CC(N(C)C)C1O)[C@@H](C)C2=O` (stereo partly shown) [Compound 220], for which the MIC (against S. aureus strain MP-12; with E. coli strain MP-4; in assay [1]; in assay [2]; in assay [3]) was ≥ 32 µg/mL throughout.

With `CC[C@H]1OC(=O)[C@@]2(C)CCOC(C)(C[C@@H](C)CN(CC)[C@H](C)[C@H]3NC(=O)O[C@@]31C)[C@H](O[C@@H]1OC(C)CC(N(C)C)C1O)[C@@H](C)C2=O` (stereo partly shown) [Compound 221], the MIC in the assay on S. aureus strain MP-12 is ≤ 4 µg/mL; with E. coli strain MP-4, ≤ 4 µg/mL; in assay [1], ≤ 4 µg/mL; in assay [2] it was ≥ 32 µg/mL; in assay [3] it was ≥ 32 µg/mL.

In the case of `CC[C@H]1OC(=O)[C@@]2(C)CCOC(C)(C[C@@H](C)CN(C)[C@H](C)[C@H]3NC(=O)O[C@@]31C)[C@H](O[C@@H]1OC(C)CC(N(C)C)C1O)[C@@H](C)C2=O` (stereo partly shown) [Compound 223], the MIC in the assay on S. aureus strain MP-12 was ≤ 4 µg/mL; against E. coli strain MP-4 it was ≤ 4 µg/mL; in assay [1] it was ≤ 4 µg/mL; in assay [2] it was 8 to 32 µg/mL (≈ 12.5 to 50 µM); in assay [3], ≥ 32 µg/mL.

Regarding `C=CC1CO[C@@]2(C)C[C@@H](C)CN[C@H](C)[C@H]3NC(=O)O[C@]3(C)[C@@H](CC)OC(=O)[C@@]1(C)C(=O)[C@H](C)[C@H]2OC1OC(C)CC(N(C)C)C1O` (stereo partly shown) [Compound 224], the MIC (against S. aureus strain MP-12; against E. coli strain MP-4; in assay [1]; in assay [2]; in assay [3]) was ≥ 32 µg/mL throughout.

On to `CC[C@H]1OC(=O)[C@]2(C)CCC(=O)CO[C@](C)(C[C@@H](C)CN[C@H](C)[C@H]3NC(=O)O[C@@]31C)[C@H](OC1OC(C)CC(N(C)C)C1O)[C@@H](C)C2=O` (stereo partly shown) [Compound 226], for which the MIC (in the assay on S. aureus strain MP-12; with E. coli strain MP-4; in assay [1]; in assay [2]; in assay [3]) was ≥ 32 µg/mL in each case.

`CC[C@H]1OC(=O)[C@@]2(C)CC/C(=N\O)CO[C@](C)(C[C@@H](C)CN[C@H](C)[C@H]3NC(=O)O[C@@]31C)[C@H](OC1OC(C)CC(N(C)C)C1O)[C@@H](C)C2=O` (stereo partly shown) [Compound 227]: the MIC (against S. aureus strain MP-12; against E. coli strain MP-4; in assay [1]; in assay [2]; in assay [3]) was ≥ 32 µg/mL each time.

Take `CC[C@H]1OC(=O)[C@]2(C)CC/C(=N\O)CO[C@](C)(C[C@@H](C)CN[C@H](C)[C@H]3NC(=O)O[C@@]31C)[C@H](OC1OC(C)CC(N(C)C)C1O)[C@@H](C)C2=O` (stereo partly shown) [Compound 228]: the MIC (in the assay with S. aureus strain MP-12; in the assay with E. coli strain MP-4; in assay [1]; in assay [2]; in assay [3]) was ≥ 32 µg/mL throughout.
